Measured values reported in US8088398B2, “Pharmaceutical compositions comprising fesoterodine” (UCB Pharma GmbH, priority 2006, dated 2012).
Each block holds one molecule with its values, some of them ahead of it.

Key:
[1] = test system: patients with overactive bladder; assay: Treatment-emergent adverse events in the efficacy trial (safety set)
Experimental: A randomized, double-blind, double dummy, placebo and active-controlled trial in adult male and female human subjects was conducted.
For the safety set, the number of patients were: 283 in the placebo treatment group, 272 in the Fesoterodine 4 mg/day treatment group, and 287 in the Fesoterodine 8 mg/day treatment group.

[2] = test system: patients with overactive bladder; assay: Efficacy trial of Fesoterodine fumarate vs tolterodine ER and placebo; type: in vivo, human; settings: FAS with LOCF; for Number of micturitions per 24 hours, Treatment difference vs Pbo / Urge incontinence per 24 hours, Treatment difference vs Pbo: ANCOVA; for Treatment response (responder rate): end of treatment
Experimental: The Fesoterodine formulations were as follows: […]
The trial was conducted in 19 countries. A total of 1135 subjects were randomized and 1103 subjects were included in the full analysis set: 279 in the placebo treatment group, 265 in the 4 mg Fesoterodine treatment group, 276 in the 8 mg Fesoterodine treatment group, and 283 in the 4 mg tolterodine ER treatment group. The mean age of subjects was 57 years. A total of 81% were female and 97% were white. There were no notable differences among the treatment groups with respect to gender, race, age, or weight/BMI.

[3] = Storage in open vials at 40° C. and 75% r.H. (stability, HPLC); type: physicochemical
Experimental: Fesoterodine hydrogen fumarate, a granulate containing Fesoterodine hydrogen fumarate and xylitol in a weight-ratio of 10:90, as well as a composition comprising Fesoterodine hydrogen fumarate and xylitol were stored in open vials (25 ml brown glass bottles) for up to 12 weeks at 40° C. and 75% r.H. The results are shown in Table 4 below.
The degradation of Fesoterodine was measured by HPLC. The following conditions were used to measure degradation products in the stability testing of Fesoterodine hydrogen fumarate: • Column: Polaris C18-Ether, 3 μm, 250 mm×4.6 mm • Eluent A: Water/methanesulfonic acid 1000:0.5 (v/v) • Eluent B: Acetonitrile/methanesulfonic acid 1000:0.5 (v/v) • Typical gradient profile:
• Column temperature: 35° C. • Flow rate: 1.2 mL/min • Detection wavelength: 220 nm • Injection volume: 20 μL
The retention time of the Active Metabolite was about 4.1 min (rrt=0.50); response factor: 1.4.
Evaluation of the HPLC results was by the area percent method.
A comparison of the observed average purity of a Fesoterodine-containing granulate and a corresponding composition as compared to pure Fesoterodine after open storage under stress conditions is set out in Table 4, wherein values are indicated in % of Fesoterodine hydrogen fumarate remaining at various times.

[4] = test system: healthy male and female human subjects; assay: Electrocardiographic effects (QT) of Fesoterodine formulations; type: in vivo; settings: for QTc outlier analyses vs placebo: three days of treatment
Experimental: Fesoterodine formulations were administered orally to steady state at dosages of 4 mg and 28 mg per day to healthy male and female human subjects and the effect of such administration on QT values was determined.
The Fesoterodine 4 mg formulation was as follows. Higher dosage levels were obtained by administering multiple 4 mg formulations.
Steady state was determined by pharmacokinetic analysis of the Active Metabolite. Assay sensitivity was shown by a significant increase from baseline in QTcF and QTcI after multiple doses of moxifloxacin. The mean time-averaged QTcF increased by 8.6 ms after three days of treatment with moxifloxacin.
The study design was double-blind, single-site, randomized, placebo- and positive controlled, parallel. Two hundred and fifty-six male and female subjects were assigned to one of the following four treatment groups (N=64 each; at least 50% female): • Fesoterodine 4 mg.day • Fesoterodine 28 mg/day • Moxifloxacin 400 mg/day • Placebo
Subjects were administered 3 days of one of the above four treatments. Three 12-lead ECGs were downloaded from an H-12 flash card (data carrier) at each of the following time points on Days −1, 1, and 3: 1, 2, 3, 4, 6, 8, 10, 12, 14, 16, 18, and 23.5 hours. Plasma samples for the determination of Active Metabolite concentration (and the concentration of further metabolites) were drawn on Day 1 and Day 3 predose and at 1, 2, 3, 4, 6, 8, 12, and 23.5 hours postdose.

[5] = Stability of blends of Fesoterodine with sugar alcohols / lactose; type: physicochemical
Experimental: Blends of Fesoterodine hydrogen fumarate with xylitol, sorbitol, mannitol and maltitol were stored for 6 weeks and 3 months in closed vials at 25° C. and 60% r.H., in closed vials at 40° C. and 75% r.H., or in open vials at 40° C. and 75% r.H. and then tested for stability by measuring the purity of Fesoterodine. The initial purity of the Fesoterodine in the blends was 99.7%.

[6] = Degradation of Fesoterodine during tablet production and storage; type: physicochemical
Experimental: Granulates of Fesoterodine with various sugars and sugar alcohols were produced as described in Example 1. These granulates were then used to produce 4 mg tablets according to Example 2.1 and with the composition given as “Example C” in Table 1, as well as wherein the xylitol was substituted with mannitol, maltitol, sorbitol, or lactose.

[7] = 4 mg/day, N = 272, listed as Feso
[8] = 8 mg/day, N = 287, listed as Feso

% of Fesoterodine hydrogen fumarate remaining (purity) ([3]; 1 week): 98.56%
% of Fesoterodine hydrogen fumarate remaining (purity) ([3]; 2 weeks): 97.67%
% of Fesoterodine hydrogen fumarate remaining (purity) ([3]; 4 weeks): 94.32%
% of Fesoterodine hydrogen fumarate remaining (purity) ([3]; 12 weeks): about 50%
% of Fesoterodine hydrogen fumarate remaining (purity) ([3]; 12 weeks, listed as Fesoterodine (pure)): 50.39%
% of Fesoterodine hydrogen fumarate remaining (purity) ([3]; Initial): 98.96%
Purity of Fesoterodine in blends ([5]; closed vial 25° C., 60% r.H., 3 months): 99.7%
Purity of Fesoterodine in blends ([5]; closed vial 25° C., 60% r.H., 6 weeks): 99.6%
Purity of Fesoterodine in blends ([5]; closed vial 40° C., 75% r.H., 6 weeks): 99.3%
Purity of Fesoterodine in blends ([5]; open vial 40° C., 75% r.H., 3 months): 53.1%
Purity of Fesoterodine in blends ([5]; open vial 40° C., 75% r.H., 6 weeks): 96.3%
Molecule: CC(C)C(=O)Oc1ccc(CO)cc1[C@H](CCN(C(C)C)C(C)C)c1ccccc1 [Fesoterodine, 2-[(1R)-3-(diisopropylamino)-1-phenylpropyl]-4-(hydroxymethyl)phenyl isobutyrate]
incidence of blurred vision ([1]; 4 mg/day): 1%
incidence of dry throat ([1]; 4 mg/day): 1%
incidence of urinary retention ([1]; 4 mg/day): 1%
Any adverse event, subjects (%) ([1]; 4 mg/day, N = 272): 50%
Any adverse event, subjects n ([1]; 4 mg/day, N = 272): 135
Constipation, subjects (%) ([1]; 4 mg/day, N = 272): 3%
Constipation, subjects n ([1]; 4 mg/day, N = 272): 9
Fatigue, subjects (%) ([1]; 4 mg/day, N = 272): (<1) %
Fatigue, subjects n ([1]; 4 mg/day, N = 272): 1
Headache, subjects (%) ([1]; 4 mg/day, N = 272): (4) %
Headache, subjects n ([1]; 4 mg/day, N = 272): 12
Keratoconjunctivitis sicca, subjects (%) ([1]; 4 mg/day, N = 272): 2%
Keratoconjunctivitis sicca, subjects n ([1]; 4 mg/day, N = 272): 6
Mouth dry, subjects (%) ([1]; 4 mg/day, N = 272): 22%
Mouth dry, subjects n ([1]; 4 mg/day, N = 272): 59
Nasopharyngitis, subjects (%) ([1]; 4 mg/day, N = 272): (3) %
Nasopharyngitis, subjects n ([1]; 4 mg/day, N = 272): 8
Urinary tract infection, subjects (%) ([1]; 4 mg/day, N = 272): (3) %
Urinary tract infection, subjects n ([1]; 4 mg/day, N = 272): 8
Any adverse event, subjects (%) [1, 7]: (50) %
Constipation, subjects (%) [1, 7]: (3) %
Keratoconjunctivitis sicca, subjects (%) [1, 7]: (2) %
Mouth dry, subjects (%) [1, 7]: (22) %
incidence of blurred vision ([1]; 8 mg/day): 1%
incidence of dry throat ([1]; 8 mg/day): 3%
incidence of urinary retention ([1]; 8 mg/day): 1%
Any adverse event, subjects (%) ([1]; 8 mg/day, N = 287): 58%
Any adverse event, subjects n ([1]; 8 mg/day, N = 287): 167
Constipation, subjects (%) ([1]; 8 mg/day, N = 287): 5%
Constipation, subjects n ([1]; 8 mg/day, N = 287): 13
Fatigue, subjects (%) ([1]; 8 mg/day, N = 287): (<1) %
Fatigue, subjects n ([1]; 8 mg/day, N = 287): 1
Headache, subjects (%) ([1]; 8 mg/day, N = 287): (2) %
Headache, subjects n ([1]; 8 mg/day, N = 287): 7
Keratoconjunctivitis sicca, subjects (%) ([1]; 8 mg/day, N = 287): 4%
Keratoconjunctivitis sicca, subjects n ([1]; 8 mg/day, N = 287): 12
Mouth dry, subjects (%) ([1]; 8 mg/day, N = 287): 34%
Mouth dry, subjects n ([1]; 8 mg/day, N = 287): 97
Nasopharyngitis, subjects (%) ([1]; 8 mg/day, N = 287): (2) %
Nasopharyngitis, subjects n ([1]; 8 mg/day, N = 287): 5
Urinary tract infection, subjects (%) ([1]; 8 mg/day, N = 287): (3) %
Urinary tract infection, subjects n ([1]; 8 mg/day, N = 287): 9
Any adverse event, subjects (%) [1, 8]: (58) %
Constipation, subjects (%) [1, 8]: (5) %
Keratoconjunctivitis sicca, subjects (%) [1, 8]: (4) %
Mouth dry, subjects (%) [1, 8]: (34) %
Number of micturitions per 24 hours, Treatment difference vs Pbo ([2]; 4 mg vs Pbo): −0.81
Urge incontinence per 24 hours, Treatment difference vs Pbo ([2]; 4 mg vs Pbo): −0.81
Number of micturitions per 24 hours, ANCOVA Endpoint LS Mean ([2]; 4 mg): −1.76
Urge incontinence per 24 hours, ANCOVA Endpoint LS Mean ([2]; 4 mg): −1.95
Number of micturitions per 24 hours, change from baseline at end of treatment, Mean (SD) ([2]; 4 mg/day): −1.74 (2.66)
Urge incontinence per 24 hours, change from baseline at end of treatment, Mean (SD) ([2]; 4 mg/day): −1.44 (2.75)
Treatment response (responder rate) ([2]; 4 mg/day): 75%
Number of micturitions per 24 hours, Treatment difference vs Pbo ([2]; 8 mg vs Pbo): −0.93
Urge incontinence per 24 hours, Treatment difference vs Pbo ([2]; 8 mg vs Pbo): −1.08
Number of micturitions per 24 hours, ANCOVA Endpoint LS Mean ([2]; 8 mg): −1.88
Urge incontinence per 24 hours, ANCOVA Endpoint LS Mean ([2]; 8 mg): −2.22
Number of micturitions per 24 hours, change from baseline at end of treatment, Mean (SD) ([2]; 8 mg/day): −1.94 (3.15)
Urge incontinence per 24 hours, change from baseline at end of treatment, Mean (SD) ([2]; 8 mg/day): −1.81 (2.35)
Treatment response (responder rate) ([2]; 8 mg/day): 79%
mean time-averaged QTcF decrease ([4]; 4 mg Fesoterodine per day, after three days of treatment): 4.6 ms
mean time-averaged QTcF decrease ([4]; 28 mg Fesoterodine per day, after three days of treatment): 5.0 ms
effect on myocardial repolarization (QTcF and QTcI vs placebo) ([4]; multiple 4 mg and 28 mg doses): did not exert an effect on myocardial repolarization
QTc outlier analyses vs placebo [4]: no differences between the Fesoterodine treatment groups and placebo

Molecule: Cc1ccc(O)c([C@H](CCN(C(C)C)C(C)C)c2ccccc2)c1 [Tolt, tolterodine, reference compound]
Number of micturitions per 24 hours, Treatment difference vs Pbo ([2]; 4 mg vs Pbo): −0.78
Urge incontinence per 24 hours, Treatment difference vs Pbo ([2]; 4 mg vs Pbo): −0.60
Number of micturitions per 24 hours, ANCOVA Endpoint LS Mean ([2]; 4 mg): −1.73
Urge incontinence per 24 hours, ANCOVA Endpoint LS Mean ([2]; 4 mg): −1.74
Number of micturitions per 24 hours, change from baseline at end of treatment, Mean (SD) ([2]; 4 mg/day): −1.69 (2.42)
Urge incontinence per 24 hours, change from baseline at end of treatment, Mean (SD) ([2]; 4 mg/day): −1.43 (2.20)
Treatment response (responder rate) ([2]; 4 mg/day): 72%

Molecule: COc1c(N2C[C@@H]3CCCN[C@@H]3C2)c(F)cc2c(=O)c(C(=O)O)cn(C3CC3)c12 [moxifloxacin, reference compound]
mean time-averaged QTcF increase ([4]; moxifloxacin 400 mg/day, after three days of treatment): 8.6 ms
QTc outlier analyses vs placebo [4]: a higher incidence of QTc outliers

hydrolyzation products and total degradation products in tablets prepared with the granulates [6]: 1.1-1.7%
Molecule: maltitol
